Relative viability data for one cell line are collected here from the supplement of paper PMC10307832.

Test in all cases: relative viability (nuclei count vs DMSO), 5 days (fraction); higher = more cells survive
Compound in assay [1]: C[C@@]1(C(=O)Nc2ccc(F)nc2)CCCN1c1nc(Nc2cc(C3CC3)n[nH]2)c2cccn2n1 + C[C@@H](Oc1cc(-c2cnn(C3CCNCC3)c2)cnc1N)c1c(Cl)ccc(F)c1Cl [Crizotinib] (partner 1 µM)
In outline: (§1)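 Dosing by pin tool came one day after lung cancer cell lines were seeded in 1536-well plates, using either one drug or a fixed anchor-drug dose plus five library-drug doses (not always all listed) in √10 steps. After 5 days, nuclei were counted on 4× images. Relative viability is treated-well nuclei count divided by vehicle-well nuclei count, and values are medians of duplicate plates.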

Compound in assay [2]: C[C@@]1(C(=O)Nc2ccc(F)nc2)CCCN1c1nc(Nc2cc(C3CC3)n[nH]2)c2cccn2n1 + Cc1nc(NC(=O)N2CCC[C@H]2C(N)=O)sc1-c1ccnc(C(C)(C)C(F)(F)F)c1 [Alpelisib] (partner 2 µM)
In outline:
as §1

Compound in the assay “Motesanib + Trametinib”: CC1(C)CNc2cc(NC(=O)c3cccnc3NCc3ccncc3)ccc21 [Motesanib] + CC(=O)Nc1cccc(-n2c(=O)n(C3CC3)c(=O)c3c(Nc4ccc(I)cc4F)n(C)c(=O)c(C)c32)c1 [Trametinib] (partner 0.02 µM)
The essentials:
as §1

Compound in the assay “Motesanib + Decitabine”: CC1(C)CNc2cc(NC(=O)c3cccnc3NCc3ccncc3)ccc21 [Motesanib] + Nc1ncn([C@H]2C[C@H](O)[C@@H](CO)O2)c(=O)n1 [Decitabine] (partner 2 µM)
The essentials: as §1

Turning to UMC-11, the relative viability was found to be 0.615 in assay [1] (first compound 0.04 µM); 0.628 in assay [1] (first compound 0.1265 µM); 0.534 in assay [1] (first compound 0.4 µM); 0.328 in assay [1] (first compound 1.265 µM); 0.955 in assay [2] (first compound 0.04 µM); 1.1 in assay [2] (first compound 0.1265 µM). Further, the relative viability is 1.01 in assay [2] (first compound 0.4 µM); 1.1 in assay [2] (first compound 1.265 µM); 0.659 with Motesanib + Trametinib (first compound 0.01 µM); 0.94 in the assay with Motesanib + Trametinib (first compound 0.03162 µM); 0.611 with Motesanib + Trametinib (first compound 0.1 µM); 0.744 with Motesanib + Trametinib (first compound 0.3162 µM). Also, the relative viability with Motesanib + Trametinib (first compound 1 µM) stood at 0.762; with Motesanib + Decitabine (first compound 0.01 µM), 0.611; in the assay with Motesanib + Decitabine (first compound 0.03162 µM), 0.677; in the assay with Motesanib + Decitabine (first compound 0.1 µM) it was 0.331; with Motesanib + Decitabine (first compound 0.3162 µM) it was 0.653; in the assay with Motesanib + Decitabine (first compound 1 µM), 0.724.
